Experimental findings from patent US20080199451A1, “Composition for the Treatment and/or Prevention of Attacks by Biological Agents” (priority 2005, published 2008) are described below.

Experiment [1] has as its system European red mite Panonychus ulmi. Briefly: Ovicide activity on European red mite eggs on beet leaf discs (Example 6). Format: in vivo. The conditions noted are these: after 8 days; leaf discs immersed five seconds; oil 1.5%, meal 2 g l^−1, hexythiazox 50 mg p.a. l^−1. Here is the method: Beet leaf discs measuring 60 mm were placed in a 90 mm diameter Petri dish and kept in a climatic cell at 24° C., 75% R.H. with 17 hours of light. Fifteen female mites were placed on each leaf disc to lay their eggs. The females were removed after 24 hours and the eggs were counted. Each group consisted of three leaf discs. The treatments were carried out with the “deep test” method: the leaf discs were immersed for five seconds in a suspension consisting of 1.5% vegetable oil, 1.5% vegetable oil+2 g l^−1 carinata meal, 1.5% UF mineral oil+2 g l^−1 carinata meal or the acaricide hexythiazox Matacar (Sipcam) at a dose of 50 mg p.a. I^−1. The control was immersed in water. The ovicide activity was assessed starting on the fourth day and every 2 days up to the eighth day, calculating the percentage of hatched eggs estimated indirectly by counting the live offspring.

The test system of a further experiment is Cacopsylla pyri. Briefly: Field test on pear lice (Example 11). It is filed as in vivo. The method, then:
Pear plants with a high level of lice infestation were treated on May 6 and 20 2006. […]

`C[C@@H]1[C@@H](c2ccc(Cl)cc2)SC(=O)N1C(=O)NC1CCCCC1` [commercial acaricide, hexythiazox]: the hatched eggs in experiment [1] worked out at 23.4%.

Abamectin: the surviving offspring with Cacopsylla pyri (ten days after the first treatment) turned out to be 22. In addition, the “offspring or nymphs found” value in the experiment on Cacopsylla pyri (third observation (30 days after the second treatment)) is given as “no offspring or nymphs were found”.
